Read-outs that look alike come from different tables or passages of the source. Residues, ends and D or L forms follow the SMILES beside them. *: point of attachment. Palmitoyl = CCCCCCCCCCCCCCCC(=O)*
Legend:
TRPV6 WT = target: T1, TRPV6 WT (Homo sapiens, UniProt Q9H1D0); assay: Whole-cell patch clamp, TRPV6 WT; type: cell-based; conditions: for re-activation after washout with DMSO: 0.1 μM cis-22a or 10 μM pal-PIP2 peptide, then diluted DMSO, n=4 each, Figure S6C,D
T1 construct: expressed in transfected cells; host or cells: HEK293 cells, transient transfection
T1 sequence (Q9H1D0 41-765 limits assumed): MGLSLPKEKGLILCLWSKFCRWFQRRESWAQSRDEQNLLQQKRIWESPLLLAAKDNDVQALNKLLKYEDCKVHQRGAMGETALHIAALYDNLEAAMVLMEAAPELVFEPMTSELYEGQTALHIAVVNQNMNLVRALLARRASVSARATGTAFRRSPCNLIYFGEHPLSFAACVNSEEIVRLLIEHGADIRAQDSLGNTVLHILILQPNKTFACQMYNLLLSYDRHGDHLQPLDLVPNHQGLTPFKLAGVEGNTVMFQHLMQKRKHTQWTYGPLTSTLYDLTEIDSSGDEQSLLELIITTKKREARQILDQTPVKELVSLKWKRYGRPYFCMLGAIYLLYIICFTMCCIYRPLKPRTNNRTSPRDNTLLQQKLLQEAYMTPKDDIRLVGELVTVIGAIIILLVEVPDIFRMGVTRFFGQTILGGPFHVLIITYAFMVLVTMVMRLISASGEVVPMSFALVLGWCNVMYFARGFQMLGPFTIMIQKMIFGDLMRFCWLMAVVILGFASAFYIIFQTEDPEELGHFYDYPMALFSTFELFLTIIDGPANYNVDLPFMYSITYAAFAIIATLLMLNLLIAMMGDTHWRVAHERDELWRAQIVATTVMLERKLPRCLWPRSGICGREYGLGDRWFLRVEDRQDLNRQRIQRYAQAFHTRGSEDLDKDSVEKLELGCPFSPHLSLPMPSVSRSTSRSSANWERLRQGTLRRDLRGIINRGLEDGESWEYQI
Excerpt: (§1) N-terminally TagRFP-labeled human TRPV6 (725 aa) was kindly provided by R. Bhardwaj and M. Hediger (University of Bern, Bern, Switzerland). This variant is translated from the first ATG codon and thus deviates from the non-ATG-initiated protein which is expressed in vivo (accession number NM_018646.6) by lacking 40 amino acids of the very N-terminus. For N-terminal labeling with EYFP, TRPV6 was cloned into pEYFP-C1 (Clontech) via EcoRI and SacII restriction sites. Mutations (F468A, R470A, F472A, K484A/Q, G488R, R492A/Q, I575A, G579A, D580A/K, H582A, W583A/F, H587A, R589A, W593A, R632A/Q, R470A, W583F) were introduced using the QuickChange XL site-directed mutagenesis kit (Stratagene, San Diego, CA, USA) and Pfu DNA Polymerase (Promega, Madison, WI, USA). pTagRFP-hTRPV6 I575A was kindly provided by the lab of M. Hediger (University of Bern, Bern, Switzerland). Forward and reverse primers for site-directed mutagenesis were synthesized by Eurofins genomics GmbH (Wien, Vienna, Austria). Intactness of the constructs in terms of sequence was confirmed by sequencing (Microsynth Austria GmbH, Wien, Vienna, Austria; Eurofins genomics GmbH, Wien, Vienna, Austria). In the present experiments, Tag-RFP-labeled constructs were implemented for NFAT screens, patch clamp measurements, and Fura-2-based Ca^2+ imaging, while for R.Geco1.2 measurements, TRPV6 WT and mutants were used which carried an EYFP label at the N-terminus (pEYFP-C1 vector) to avoid spectral overlap. R.Geco1.2 was purchased from Addgene (No. 45494), and mCherry-CRY2-5ptase OCRL was established in the lab of P. De Camilli and was derived from Addgene (No. 66836), as was CIBN-CAAX (No. 79574). Plasmids encoding for mCerulean3-CRY2-5′ ptase OCRL, YFP-CIBN-CAAX, and the mCherry-tagged PH domain were provided by K. Groschner (Medical University of Graz, Graz, Austria). […] CFP-NFAT (NFATc1, equivalent to NFAT2) was kindly provided by R. Kehlenbach (Scripps Research Institute, La Jolla, CA, USA).
(§2) Cultivation of human embryonic kidney (HEK) 293 cells occurred in DMEM supplemented with 10% fetal calf serum, penicillin (100 U/mL), and streptomycin (100 µg/mL) at 37 °C under humidified atmosphere containing 5% CO2. Transient transfection was performed 20–24 h prior to experiments using the TransFectin lipid reagent (Bio-Rad, Hercules, CA, USA), in accordance with the instructions of the supplier. For Ca^2+ imaging using R.Geco1.2, 2 μg of the indicator-encoding plasmid were additionally transfected, while 1 μg plasmid DNA was routinely used per construct in all other cases. For patch clamp experiments, cells were reseeded on poly-L-lysine-coated glass slides at least 4 h prior to experiments. To exclude mycoplasma contaminations, culture supernatants were regularly tested by means of the VenorGem Advanced Mycoplasma Detection kit (VenorGEM, Berlin, Germany).
Electrophysiological experiments were performed at 20 °C to 24 °C in whole-cell recording configurations of the patch clamp technique. A Ag/AgCl electrode was used as a reference electrode. The implemented voltage ramp protocol included a holding potential of +50 mV, wherefrom voltage was ramped from −90 mV to +90 mV within 200 ms with an interval of 5 s between individual ramps. For the time courses, the inward current density at −74 mV was considered. The internal pipette solution contained 145 mM cesium methane sulfonate, 8 mM NaCl, 3.5 mM MgCl2, 10 mM HEPES, and 20 mM EGTA (pH 7.2). For electrophysiological measurements, the basic extracellular solution was composed of 145 mM NaCl, 5 mM CsCl, 1 mM MgCl2, 10 mM HEPES, 10 mM glucose, and 10 mM CaCl2 (pH 7.4). Leak correction of currents was performed by subtracting the residual current after 1 mM La^3+ application at the end of the experiment. The liquid junction potential was determined as 12 mV; the voltages were not adjusted. Clampfit 11.1.0.23 and OriginPro 2020b software were used for data analysis. All experiments were conducted on a minimum of two different days.

TRPV6 G488R = assay: Whole-cell patch clamp, TRPV6 G488R; type: cell-based, human; conditions: HEK293 cells; for inhibition of current (in words): Figure 2D
Excerpt: as §1
as §2, with “For patch clamp experiments, cells were reseeded on poly-L-lysine-coated glass slides at least 4 h prior to experiments. To exclude mycoplasma contaminations, culture supernatants were regularly tested by means of the VenorGem Advanced Mycoplasma Detection kit (VenorGEM, Berlin, Germany).” left out
(§3) Electrophysiological experiments were performed at 20 °C to 24 °C in whole-cell recording configurations of the patch clamp technique. […] The liquid junction potential was determined as 12 mV; the voltages were not adjusted. […]

TRPV6 R492Q = assay: Whole-cell patch clamp, TRPV6 R492Q; type: cell-based, human; conditions: HEK293 cells, p < 0.05
Excerpt: N-terminally TagRFP-labeled human TRPV6 (725 aa) was kindly provided by R. Bhardwaj and M. Hediger (University of Bern, Bern, Switzerland). This variant is translated from the first ATG codon and thus deviates from the non-ATG-initiated protein which is expressed in vivo (accession number NM_018646.6) by lacking 40 amino acids of the very N-terminus. For N-terminal labeling with EYFP, TRPV6 was cloned into pEYFP-C1 (Clontech) via EcoRI and SacII restriction sites. Mutations (F468A, R470A, F472A, K484A/Q, G488R, R492A/Q, I575A, G579A, D580A/K, H582A, W583A/F, H587A, R589A, W593A, R632A/Q, R470A, W583F) were introduced using the QuickChange XL site-directed mutagenesis kit (Stratagene, San Diego, CA, USA) and Pfu DNA Polymerase (Promega, Madison, WI, USA). pTagRFP-hTRPV6 I575A was kindly provided by the lab of M. Hediger (University of Bern, Bern, Switzerland). Forward and reverse primers for site-directed mutagenesis were synthesized by Eurofins genomics GmbH (Wien, Vienna, Austria). Intactness of the constructs in terms of sequence was confirmed by sequencing (Microsynth Austria GmbH, Wien, Vienna, Austria; Eurofins genomics GmbH, Wien, Vienna, Austria). In the present experiments, Tag-RFP-labeled constructs were implemented for NFAT screens, patch clamp measurements, and Fura-2-based Ca^2+ imaging, while for R.Geco1.2 measurements, TRPV6 WT and mutants were used which carried an EYFP label at the N-terminus (pEYFP-C1 vector) to avoid spectral overlap. R.Geco1.2 was purchased from Addgene (No. 45494), and mCherry-CRY2-5ptase OCRL was established in the lab of P. De Camilli and was derived from Addgene (No. 66836), as was CIBN-CAAX (No. 79574). Plasmids encoding for mCerulean3-CRY2-5′ ptase OCRL, YFP-CIBN-CAAX, and the mCherry-tagged PH domain were provided by K. Groschner (Medical University of Graz, Graz, Austria). […]
as §3

| inhibition of current (in words) (TRPV6 WT; HEK293 cells, 10 µM cis-22a, after 0.1 µM, Figure 2D) | inhibition of current (TRPV6 WT; HEK293 cells, 10 μM cis-22a, 10 mM Ca2+, relative to La3+ block, Figure 4C) | SMILES | IC50 (TRPV6 WT) | inhibition at 20 µM (TRPV6 WT; HEK293, read-out: apparent inhibition of current) | inhibition at 10 µM (TRPV6 WT; HEK293, read-out: inhibition of current) | inhibition at 10 µM (TRPV6 WT; HEK293, read-out: mean percentage of inhibition (current)) | inhibition at 10 µM (TRPV6 WT; HEK293, read-out: mean percentage of inhibition (residual current)) | re-activation after washout with DMSO (TRPV6 WT; HEK293 cells) | Ca2+ selectivity (TRPV6 WT; HEK293 cells, 10 μM pal-PIP2 peptide, current-voltage relationship, Figure S1D) | reduction of current density (in words) (TRPV6 WT; HEK293 cells, Figure 1C,D, S1B–D) | Hill coefficient of dose–response (TRPV6 WT; HEK293 cells, Hill fit, 0.1 μM to 30 μM) | effect at further increased concentration (TRPV6 WT; HEK293 cells, above 30 μM up to 100 μM, supposedly due to increased DMSO concentration) | maximum inhibition of TRPV6 currents (plateau) (TRPV6 WT; HEK293 cells, plateau from 20 μM on) | inhibition of current (TRPV6 G488R; 10 μM pal-PIP2 peptide, relative to 1 mM La3+, n=4, Figure S1E) | apparent inhibition of current (TRPV6 G488R; 20 μM pal-PIP2 peptide, 10 mM Ca2+, relative to 1 mM La3+, Figure 2B) | sensitivity to peptide-based PIP2 sequestration vs WT (TRPV6 R492Q; 10 μM pal-PIP2 peptide, Figure 4D) | inhibition of current (in words) (TRPV6 G488R; 0.1 µM cis-22a, 10 mM Ca2+) | inhibition of current (in words) (TRPV6 G488R; 10 µM cis-22a (hundredfold higher dose), after 0.1 µM) | current inhibition vs TRPV6 WT (TRPV6 R492Q; 0.1 μM cis-22a) | current inhibition vs TRPV6 WT (TRPV6 R492Q; 10 μM cis-22a, after 0.1 μM) |
| --- | --- | --- | --- | --- | --- | --- | --- | --- | --- | --- | --- | --- | --- | --- | --- | --- | --- | --- | --- | --- |
|  |  | CCCCCCCCCCCCCCCC(=O)N[C@@H](Cc1c[nH]cn1)C(=O)N[C@@H](CCCNC(=N)N)C(=O)N[C@@H](CCC(N)=O)C(=O)N[C@@H](CCCCN)C(=O)N[C@@H](Cc1c[nH]cn1)C(=O)N[C@@H](Cc1ccccc1)C(=O)N[C@@H](CCC(=O)O)C(=O)N[C@@H](CCCCN)C(=O)N[C@@H](CCCNC(=N)N)C(=O)N[C@@H](CCCNC(=N)N)C(N)=O [pal-PIP2 peptide] (Palmitoyl-HRQKHFEKRR-NH2) | 4.47 µM | ~63% | ~56% | 51.6% | 54% | no re-activation occurred | remained unchanged | reduced in a dose-dependent manner | 1.95 | rapid membrane rupture or leaky measurements | about 60% | ~ 4% | about 24% | significantly reduced sensitivity |  |  |  |  |
| almost complete block | ~ 98% | Cc1cccc(C2CCC(N3CCN(c4cccnc4)CC3)CC2)c1.O=C(O)C(F)(F)F (stereo not drawn) [cis-22a] |  |  |  |  |  | no re-activation occurred |  |  |  |  |  |  |  |  | not inhibited | essentially unaffected | significantly reduced | significantly reduced inhibition |

Source: publication PMC10779433, “Bidirectional Allosteric Coupling between PIP2 Binding and the Pore of the Oncochannel TRPV6” (International Journal of Molecular Sciences, 2024)
